Laboratory results taken from US20070232691A1, “Use of ladostigil for the treatment of schizophrenia” (priority 2006, published 2007).
Entries after “also recorded” stand apart in the source; their conditions may differ.

System: male Wistar rats
Assay: MK-801-induced persistent latent inhibition (LI), thirst motivated conditioned emotional response procedure
Type: in vivo, rat
Description: Latent inhibition (“LI”) is the process whereby pre-exposure to a stimulus retards conditioning to this stimulus when it is subsequently paired with reinforcement, and it has been used extensively to model cognitive impairments in schizophrenia. […] Briefly, amphetamine disrupts LI in rats and normal humans, and this is paralleled by disrupted LI in acute schizophrenia patients. Amphetamine-induced LI disruption is reversed by both typical and atypical APDs.
The rats used were male Wistar rats approximately five months old, weighing 350 g to 500 g.
Rats were tested in Campden Instruments rodent test chambers with a retractable bottle. When the bottle was not present, the hole was covered by a metal lid. Licks were detected by a Campden Instruments drinkometer. The preexposed to-be-conditioned stimulus was a 10 sec, 80 dB, 2.8 kHz tone produced by a Sonalert module. Shock was supplied through the floor by a Campden Instruments shock generator and shock scrambler set at 0.5 mA and 1 sec duration. Equipment programming and data recording were computer controlled.
LI was measured in a thirst motivated conditioned emotional response (“CER”) procedure by comparing the suppression of drinking to a tone previously paired with a foot shock in rats that received non-reinforced exposure to the tone prior to conditioning (preexposed) and in rats for whom the tone was novel (non-preexposed).
Prior to the beginning of each LI experiment, rats were handled for about 2 min daily for 8 days. On day 9, a 23 h water restriction schedule was initiated and continued throughout the experiment. After 5 days of deprivation (days 9-13), rats were trained to drink in the experimental chambers for the next 5 days (days 14-18), for 20 min during the 1st day and for 15 min per day during each of the next 4 days. Water in the test apparatus was given in addition to the daily ration of 1 h given in the home cages. The LI procedure was conducted on days 19-22 and consisted of the following stages:
With the bottle removed, the preexposed (“PE”) rats received 40 tone presentations with an inter-stimulus interval of 50 sec. The nonpreexposed (“NPE”) rats were confined to the chamber for an identical period of time without receiving the tone.
With the bottle removed, each rat received 5 tone-shock pairings given 5 min apart. Shock immediately followed tone termination. The first tone-shock pairing was given 5 min after the start of the session. After the last pairing, rats were left in the experimental chamber for an additional 5 min. […]
Each rat was placed in the chamber and allowed to drink from the bottle. […] The following times were recorded: Time to first lick, time to complete licks 1-50, time to complete licks 51-75 (before tone onset) and time to complete licks 76-100 (after tone onset). […]

Molecule | LI (difference between preexposed and nonpreexposed groups in log times to complete licks 76-100) (MK-801 0.05 mg/kg i.p. 30 min before conditioning, vehicle pretreatment, 40 preexposures, 5 conditioning trials) | LI / reversal of abnormally persistent LI in MK-801-treated rats (25 mg/kg ladostigil tartrate p.o. chronic + MK-801 0.05 mg/kg i.p.) | LI (difference between preexposed and nonpreexposed groups in log times to complete licks 76-100) (37.5 mg/kg ladostigil tartrate p.o. chronic + MK-801 0.05 mg/kg i.p.) | Effect on LI of drug on its own (ladostigil tartrate 25 mg/kg and 37.5 mg/kg p.o. chronic + saline (no MK-801))
C[C@]12N[C@H](Cc3ccccc31)c1ccccc12 [MK-801, dizocilpine, reference compound] | significant difference between the preexposed and nonpreexposed groups, namely, LI; also recorded: persisted in showing LI |  |  | 
R(+)-6-(N-methyl, N-ethyl-carbamoyloxy)-N′-propargyl-1-aminoindan ½ tartrate [ladostigil tartrate] |  | reversed abnormally persistent LI | significant difference between the preexposed and nonpreexposed groups, namely, LI | had no effect
